These results are taken from patent US11041000B2, “Peptide inhibitors of interleukin-23 receptor and their use to treat inflammatory diseases” (priority 2019, dated 2021).

Series [1] in a line: Stability in simulated gastric fluid (SGF). It is filed as in vitro ADME. The note with it: simulated gastric fluid with porcine pepsin, pH 2, 37° C., 20 μM peptide.
Description: SGF was prepared by adding 20 mg NaCl, 32 mg porcine pepsin (MP Biochemicals, catalog 02102599), and 70 μl HCl to 10 ml water (final pH=2). Aliquots of SGF (0.5 ml each) were pre-warmed at 37° C. To start the reaction, 1 μl of peptide stock solution (10 mM in DMSO) was added to 0.5 ml SGF and thoroughly mixed such that the final peptide concentration was 20 μM. The reactions were incubated at 37° C. with gentle shaking. At each time point (0, 15, 30, 60 min) 50 μl aliquots were removed and added to 200 ul acetonitrile containing 0.1% formic acid to quench the reaction. Samples are stored at 4° C. until the end of the experiment and centrifuged at 10,000 rpm for 5 minutes. Aliquots of the supernatant were removed, diluted 1:1 into distilled water containing internal standard, and analyzed by LCMS/MS. Percent remaining at each timepoint was calculated based on the peak area response ratio of test to compound to internal standard. Time 0 was set to 100%, and all later timepoints were calculated relative to time 0. Half-lives were calculated by fitting to a first-order exponential decay equation using GraphPad.
A short description of another series: Stability in rat plasma. The format is in vitro ADME. The note with it: both sexes, SD rat plasma, EDTA, 37° C., read-out: t½: Rat Plasma EDTA (converted).
A short description of series [2]: Stability in human fecal homogenate. The conditions noted are these: 20% fecal homogenate (supernatant), pH 6.8, 20% human fecal homogenate, anaerobic, 37° C., read-out: t½: Human Feces anaerobic (converted). The format is in vitro ADME. The method, then: (§1) Centrifuged the homogenate at 2800×g for 15 min. The supernatant is taken out and used for incubations. […] The final test compound concentration was 20 μM.

Series [3] has as its system Natural killer (NK) cells. The series is described as follows: NK cell based assay (IL-23-induced IFNγ). The conditions noted are these: primary human NK cells, IL-23 plus IL-18 10 ng/mL, IFNγ in supernatant after 20 to 24 hours. As to the method:
Natural killer (NK) cells, purified from human peripheral blood of healthy donors by negative selection (Miltenyi Biotech, Cat #130-092-657), were cultured in complete media (RPMI 1640 containing 10% FBS, L-glutamine and penicillin-streptomycin) in the presence of IL-2 (RnD, Cat #202-IL-010/CF) at 25 ng/mL. After 7 days, cells were centrifuged, and resuspended in complete media at 1E6 cells/mL. […] After 20 to 24 hours, IFNγ in the supernatant was quantified using Quantikine ELISA (RnD, Cat #DIF50).

The nature of series [4]: Stability in simulated intestinal fluid (SIF). The format is in vitro ADME. The note with it: simulated intestinal fluid with pancreatin, pH 6.8, 37° C., matrix is 100 fold dilution of standard SIF concentration, read-out: SIF t½ (converted).
Description: SIF was prepared by adding 6.8 g of monobasic potassium phosphate and 10.0 g of pancreatin to 1.0 L of water. After dissolution, the pH was adjusted to 6.8 using NaOH. DMSO stocks (2 mM) were first prepared for the test compounds. Aliquots of the DMSO solutions were dosed into 6 individual tubes, each containing 0.5 mL of SIF, which is pre-warmed to 37° C. The final test compound concentration was 20 μM. The vials were kept in a benchtop Thermomixer® for the duration of the experiment. At each timepoint (0, 5, 10, 20, 40, 60, or 360 minutes or 24 hours), 1.0 mL of acetonitrile containing 1% formic acid was added to one vial to terminate the reaction. Samples were stored at 4° C. until the end of the experiment. After the final timepoint is sampled, the tubes were mixed and then centrifuged at 3,000 rpm for 10 minutes. Aliquots of the supernatant were removed, diluted 1:1 into distilled water containing internal standard, and analyzed by LCMS/MS. Percent remaining at each timepoint was calculated based on the peak area response ratio of test to compound to internal standard. Time 0 was set to 100%, and all later timepoints were calculated relative to time 0. Half-lives were calculated by fitting to a first-order exponential decay equation using Graphpad.
Series [5] in a line: Stability in cynomolgus monkey fecal homogenate. The format is in vitro ADME. The conditions noted are these: 20% fecal homogenate (supernatant), pH 6.8, 20% cynomolgus monkey fecal homogenate, anaerobic, 37° C., read-out: t½: Monkey Feces anaerobic (converted). The method, then:
as §1

Bridge positions count the residues as written; N and C are the ends. Square brackets hold non-standard residues; d marks the D form. Peptide text beside a SMILES is read from it. Trp(7-Me) = Cc1cccc2c(C[C@H](N)C(=O)O)c[nH]c12; 2Nal = N[C@@H](Cc1ccc2ccccc2c1)C(=O)O; AEF = NCCOc1ccc(C[C@H](N)C(=O)O)cc1; Cit = NC(=O)NCCC[C@H](N)C(=O)O; Pen = CC(C)(S)[C@H](N)C(=O)O; αMeK = C[C@](N)(CCCCN)C(=O)O; Aib = CC(C)(N)C(=O)O

The term IC50 denotes the point on the concentration scale where inhibition reaches its midpoint.

Description for Stability in rat plasma: Peptides of interest (20 μM) were incubated with pre-warmed rat plasma (SD rat, mixed gender pooled, EDTA, filtered through 0.22 μm, BioreclamationIVT) at 37° C. […] Quenched samples were stored at 4° C. until the end of the experiment and centrifuged at 4,000 rpm for 10 minutes. The supernatant were diluted 1:1 with deionized water and analyzed using LC-MS. Percentage remaining at each time point was calculated based on the peak area ratio (analyte over internal standard) relative to the initial level at time zero. Half-lives were calculated by fitting to a first-order exponential decay equation using GraphPad.

In the case of `CC(=O)NCCCC[C@H](NC(=O)[C@](C)(CCCCN)NC(=O)[C@H](Cc1ccc2ccccc2c1)NC(=O)[C@H](Cc1ccc(OCCN)cc1)NC(=O)[C@H]1NC(=O)[C@H](CCCNC(N)=O)NC(=O)[C@H](Cc2c[nH]c3c(C)cccc23)NC(=O)[C@H]([C@@H](C)O)NC(=O)[C@H](CC(N)=O)NC(=O)[C@@H](NC(C)=O)C(C)(C)SSC1(C)C)C(=O)N[C@@H](CC(N)=O)C(=O)NC(C)(C)C(N)=O` [compound 264] (Ac-[Pen]NT[Trp(7-Me)][Cit][Pen][AEF][2Nal][αMeK]K(Ac)N[Aib]-NH2; disulfide 1-6), the “SGF t½” value in series [1] was 24 h.

As for `CC(=O)NCCCC[C@@H]1NC(=O)[C@H](Cc2c[nH]c3c(C)cccc23)NC(=O)[C@H]([C@@H](C)O)NC(=O)[C@H](CC(N)=O)NC(=O)[C@@H](NC(C)=O)C(C)(C)SSC(C)(C)[C@@H](C(=O)N[C@@H](Cc2ccc(OCCN)cc2)C(=O)N[C@@H](Cc2ccc3ccccc3c2)C(=O)N[C@@](C)(CCCCN)C(=O)N[C@@H](CCCCNC(=O)C2CCCCC2)C(=O)N[C@@H](CC(N)=O)C(=O)N[C@H](CC(C)C)C(N)=O)NC1=O` [compound 357], the half-life at 20 μM is above 24 h in the series “Stability in rat plasma”, above 24 h in series [2], 14 h in series [4] and above 24 h in series [5]. The IC50 in series [3] came to 3.8 nM.
